Legend:
[1] = tested on: smooth muscle of tracheal rings; assay: spasmodic contraction of tracheal rings ex vivo (histamine-induced); design: species or system Dunkin-Hartley guinea pigs; conditions: for relaxing effect on airway (tracheal ring) smooth muscle, in words: histamine-induced contraction ex vivo; for Effectiveness (Emax) (%): relaxation of tracheal rings contracted by histamine (50 μM); for Effectiveness (Emax) (%) / Potency (pEC50) Molar: mean±SEM; for Potency (pEC50) Molar: tracheal rings contracted by histamine (50 μM), peptides 0.01 to 10 μM
Procedure: The magnitude of the relaxing effect of the peptides was evaluated by means of a model of spasmodic contraction of tracheal rings ex vivo, largely employed to test new bronchodilating agents (see CULLUM, V. A., FARMER, J. B., JACK, D., LEVY, G. P. Salbutamol: a new, selective β-adrenoceptive receptor stimulant. British journal of pharmacology, 35(1): 141-151. 1969; KAO, C. H., CHU, Y. H., WANG, H. W. Effects of lidocaine on rat's isolated tracheal smooth muscle. European Archives of Oto-Rhino-Laryngology, 267(5): 817-820. 2010; SORIANO-URSÚA, M. A., VALENCIA-HERNÁNDEZ, I., ARELLANO-MENDOZA, M. G., CORREA-BASURTO, J., TRUJILLO-FERRARA, J. G. Synthesis, pharmacological and in silico evaluation of 1-(4-dihydroxy-3, 5-dioxa-4-borabycyclo [4.4.0] deca-7,9,11-trien-9-yl)-2-(tert-butylamine) ethanol, a compound designed to act as a β2 adrenoceptor agonist. European journal of medicinal chemistry, 44(7): 2840-2846. 2009).
For each test, Dunkin-Hartley guinea pigs (400-500 g) were euthanized in a CO2 atmosphere; subsequently, the trachea was exposed, removed and sectioned in segments of 1 to 3 cartilaginous tracheal rings. Each segment was transferred to an individual organ bath system containing Krebs nutritive solution (NaCl 118 mM; KCl […]; CaCl2) 2.5 mM; MgSO4 1.2 mM; KH2PO4 1.2 mM; NaHCO324 mM; glucose 11 mM) at 37° C., under constant aeration with a carbogenic mixture (95% of O2 and 5% of CO2). In each system, a stem fixed to the base of the container and another connected to an isometric transducer (GRASS FT-03) made up the support of the fragments. A data digitizing system connected to the isometric transducer allowed the recording of tension variations produced by the contraction of the tracheal rings (PowerLab™ 16/30, LabChart, version 8.1, AD Instruments, Australia). The basal tension was adjusted to 1 g, and subsequently, the contractility of the fragments was evaluated by a stimulus with carbachol (2.5 μM). After 1 h at rest, the basal tension was recovered and the tissues were subjected to contraction induced by histamine (50 μM) followed by exposure to increasing concentrations of the treatments (0.01 to 10 μM; n=8) or the comparator PnTx(19).
Table 1 lists the mean±SEM of the potency values, shown as the negative logarithm of the concentration that reduced the voltage to 50% of the maximum Histamine-induced contraction (pEC50), and efficacy (Emax), calculated from at least 8 independent tests using the sigmoid nonlinear regression equation of the software Graph Prism 5.0 (GraphPad Software, La Jolla, Ca, USA).

[2] = tested on: smooth muscle of pulmonary arteries; assay: relaxation of pulmonary arteries contracted with phenylephrine ex vivo; design: species or system male Wistar rats; conditions: n = 9; for pEC50: pulmonary arteries contracted with phenylephrine, peptides 1 nM-10 μM, mean±SEM; for Effectiveness (Emax) (%): relaxation percentage related to maximum phenylephrine contraction
Source text: The ex vivo model of pulmonary artery smooth muscle contraction with phenylephrine is very useful to screen candidate compounds for lung diseases that demand vasodilating effects (ALENCAR, A. K., PEREIRA, S. L., MONTAGNOLI, T. L., MAIA, R. C., KUMMERLE, A. E., LANDGRAF, S. S., CARUSO-NEVES, C., FERRAZ, E. B., TESCH, R., NASCIMENTO, J. H., DE SANT'ANNA, C. M., FRAGA, C. A., BARREIRO, E. J., SUDO, R. T., ZAPATA-SUDO, G. Beneficial effects of a novel agonist of the adenosine A2A receptor on monocrotaline-induced pulmonary hypertension in rats. Br J Pharmacol, 169: 953-62. 2013).
Rats were anesthetized with midazolam and ketamine (2 mg/kg and 100 mg/kg, respectively) via intraperitoneal administration. After infusion of a lethal dose of sodium thiopental via intraperitoneal administration (50 mg/kg), the trunk of the pulmonary artery was carefully removed via sternotomy. The pulmonary artery was carefully dissected and the connective tissue removed. The arteries were connected to a force transductor, positioned in vertical chambers filled with Krebs solution, oxygenated and kept at 37° C.
After a stabilization period of 2 hours at a tension of 1.5 grams, the arteries were exposed to increasing doses of phenylephrine (1 nM-10 μM) in order to obtain maximum smooth muscle contraction and then exposed to increasing doses of selected peptides in the concentrations of 1 nM-10 μM each (n=9). The tension generated by the pulmonary artery was evaluated at intervals of 5 minutes for each dose (ALENCAR, A. K., PEREIRA, S. L., MONTAGNOLI, T. L., MAIA, R. C., KUMMERLE, A. E., LANDGRAF, S. S., CARUSO-NEVES, C., FERRAZ, E. B., TESCH, R., NASCIMENTO, J. H., DE SANT'ANNA, C. M., FRAGA, C. A., BARREIRO, E. J., SUDO, R. T., ZAPATA-SUDO, G. Beneficial effects of a novel agonist of the adenosine A2A receptor on monocrotaline-induced pulmonary hypertension in rats. Br J Pharmacol 169: 953-62. 2013; ALENCAR, A. K., PEREIRA, S. L., DA SILVA, F. E., MENDES, L. V., CUNHA VDO, M., LIMA, L. M., MONTAGNOLI, T. L., CARUSO-NEVES, C., FERRAZ, E. B., TESCH, R., NASCIMENTO, J. H., SANT'ANNA, C. M., FRAGA, C. A., BARREIRO, E. J., SUDO, R. T., ZAPATA-SUDO, G. N-acylhydrazone derivative ameliorates monocrotaline-induced pulmonary hypertension through the modulation of adenosine AA2R activity. International Journal of Cardiology, 173(2): 154-62. 2014).
Potency values are shown as the negative logarithm of the concentration that reduced the voltage to 50% of the maximum phenylephrine-induced contraction (pEC50), and they are expressed as mean±SEM. The maximum contraction achieved in a given artery was considered to be 100% of contraction, and the effectiveness (Emax) was expressed as the relaxation percentage related to this maximum value. The results were calculated from at least 3 independent tests using the sigmoid non-linear regression equation, and the statistical analysis of the concentration curve was done by performing a nonlinear fit of the logarithmic of the agonist versus response. All the above calculations were performed on the software Graph Prism 5.0 (GraphPad Software, La Jolla, Calif., USA). Tension analysis was performed on the software LabChart7 (AD Instruments, Sydney, Australia). As a cutoff to determine biological significance, we considered pulmonary artery relaxation values above 30% as biologically relevant, considered those as active and then calculated the Emax values (SUN, C. K., LIN, Y. C., YUEN, C. M., CHUA, S., CHANG, L. T., SHEU, J. J., LEE, F. Y., FU, M., LEU, S., YIP, H. K. Enhanced protection against pulmonary hypertension with sildenafil and endothelial progenitor cell in rats. International journal of cardiology, 162(1): 45-58. 2012; ALENCAR, A. K., PEREIRA, S. L., DA SILVA, F. E., MENDES, L. V., CUNHA VDO, M., LIMA, L. M., MONTAGNOLI, T. L., CARUSO-NEVES, C., FERRAZ, E. B., TESCH, R., NASCIMENTO, J. H., SANT'ANNA, C. M., FRAGA, C. […]

| Substance | relaxing effect on airway (tracheal ring) smooth muscle, in words [1] | Effectiveness (Emax) (%) [1] | Potency (pEC50) Molar [1] | pEC50 [2] | Effectiveness (Emax) (%) [2] |
| --- | --- | --- | --- | --- | --- |
| AQYFWIAWYKLANSK [SEQ ID NO: 4, Ac-Ala-Gln-Tyr-Phe-Trp-Ile-Ala-Trp-Tyr-Lys-Leu-Ala-Asn-Ser-Lys-NH2] | effective | 38.8 ± 3.5% | 6.8 ± 0.3 Molar | – | – |
| IAWYKGGGGGIAWYK [SEQ ID NO: 28, Ac-Ile-Ala-Trp-Tyr-Lys-Gly-Gly-Gly-Gly-Gly-Ile-Ala-Trp-Tyr-Lys-NH2] | – | Inactive | Inactive | – | – |
| IAWYKGGGGGIAWYKGGGGGIAWYK [SEQ ID NO: 30] | – | Inactive | Inactive | – | – |
| IAWYKRGGGGGRKYWAI [SEQ ID NO: 29, Ac-Ile-Ala-Trp-Tyr-Lys-Arg-Gly-Gly-Gly-Gly-Gly-Arg-Lys-Tyr-Trp-Ala-Ile-NH2] | – | Inactive | Inactive | – | – |
| QYFWIAWYKLANS [SEQ ID NO: 17, Ac-Gln-Tyr-Phe-Trp-Ile-Ala-Trp-Tyr-Lys-Leu-Ala-Asn-Ser-NH2] | – | 37.1 ± 2.6% | 6.8 ± 0.3 Molar | 7.8 ± 3.0 | 15% ± 2.6 |
| RAYFWIAWYKLANSK [SEQ ID NO: 1, Ac-Arg-Ala-Tyr-Phe-Trp-Ile-Ala-Trp-Tyr-Lys-Leu-Ala-Asn-Ser-Lys-NH2] | effective | 45.7 ± 4.3% | 7.1 ± 0.4 Molar | – | – |
| RQAFWIAWYKLANSK [SEQ ID NO: 3, Ac-Arg-Gln-Ala-Phe-Trp-Ile-Ala-Trp-Tyr-Lys-Leu-Ala-Asn-Ser-Lys-NH2] | effective | 36.7 ± 1.9% | 6.8 ± 0.2 Molar | – | – |
| RQYFWIAW [SEQ ID NO: 22, Ac-Arg-Gln-Tyr-Phe-Trp-Ile-Ala-Trp-NH2] | – | 35.2 ± 1.8% | 7.0 ± 0.2 Molar | 5.8 ± 3.1 | 8% ± 2.83 |
| RQYFWIAWY [SEQ ID NO: 20, Ac-Arg-Gln-Tyr-Phe-Trp-Ile-Ala-Trp-Tyr-NH2] | – | 37.8 ± 2.9% | 7.1 ± 0.3 Molar | 6.1 ± 6.9 | 6% ± 7.64 |
| RQYFWIAWYKIASNK [SEQ ID NO: 6, Ac-Arg-Gln-Tyr-Phe-Trp-Ile-Ala-Trp-Tyr-Lys-Ile-Ala-Ser-Asn-Lys-NH2] | – | 25.3 ± 1.7% | 7.0 ± 0.3 Molar | – | – |
| RQYFWIAWYKLANSA [SEQ ID NO: 2, Ac-Arg-Gln-Tyr-Phe-Trp-Ile-Ala-Trp-Tyr-Lys-Leu-Ala-Asn-Ser-Ala-NH2] | effective | 40.4 ± 2.6% | 6.9 ± 0.2 Molar | – | – |
| WIAWYKL [SEQ ID NO: 23, Ac-Trp-Ile-Ala-Trp-Tyr-Lys-Leu-NH2] | – | 35.5 ± 2.3% | 7.5 ± 0.3 Molar | 6.1 ± 6.2 | 4% ± 6.07 |
| YFWIAWYKLAN [SEQ ID NO: 18, Ac-Tyr-Phe-Trp-Ile-Ala-Trp-Tyr-Lys-Leu-Ala-Asn-NH2] | – | 38.0 ± 2.3% | 7.2 ± 0.3 Molar | 6.5 ± 9.3 | 18% ± 9.12 |
